According to patent publication US20180057505A1, “BICYCLIC HETEROARYL COMPOUNDS USEFUL AS INHIBITORS OF THE PAR-2 SIGNALING PATHWAY” (VERTEX PHARMACEUTICALS INCORPORATED, priority 2015, published 2018):

Key:
Assay type in all cases: cell-based
[1] = target: T1, PAR2 (HT-29 cells) (Homo sapiens, UniProt P55085); test: Ca FLIPR TETRA assay, ANTAGONIST mode, activator 8 μM SLIGKV; details: for IC50: HT-29 cells, activator 8 μM SLIGKV, maximal antagonist concentration per Method (A: 0.1, 1 or 2 μM; B: 50 μM); for SLIGKV, % @ 50: @ 50 (μM)
T1 construct: host or cells: HT-29
T1 sequence (P55085 26-397): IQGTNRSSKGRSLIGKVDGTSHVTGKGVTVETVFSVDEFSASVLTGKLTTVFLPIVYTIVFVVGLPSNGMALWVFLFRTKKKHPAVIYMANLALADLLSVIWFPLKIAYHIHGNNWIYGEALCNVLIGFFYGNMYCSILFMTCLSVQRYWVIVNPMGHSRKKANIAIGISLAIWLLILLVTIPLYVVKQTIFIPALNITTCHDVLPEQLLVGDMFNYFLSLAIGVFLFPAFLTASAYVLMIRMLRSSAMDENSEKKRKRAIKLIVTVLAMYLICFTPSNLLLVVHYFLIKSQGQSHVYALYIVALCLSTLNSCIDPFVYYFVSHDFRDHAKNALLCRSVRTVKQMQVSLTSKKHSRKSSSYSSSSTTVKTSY
Experimental: (§1) Protocol for Testing PAR2 Compounds in ANTAGONIST Mode Using the Ca FLIPR^TETRA Assay (384 Well).
(§2) 23000 HT-29 cells (ATCC# HTB-38) were plated in 384-well black, transparent-flat bottom plates and incubated in 25 uL of 1% FBS/McCoy's media ON at 37° C. under an atmosphere of 5% CO2. The following day, 25 uL FLIPR calcium 5 Molecular Devices assay reagent (Cat: R-8186) was added. Plates were incubated at 37° C. and r. t. for 45 min and 15 min, respectively. Compounds dilutions were prepared in 100% DMSO using a Biomek FX and diluted 20-fold in HBSS and then 5.5 uL was added directly to the cells by the FLIPR^TETRA (10× dilution) using FLIPR Tetra Pipette tips, black, non-sterile, 384 Molecular Devices (Cat: 9000-0764).
(§3) A first read was performed to determine whether the test compounds on their own can activate Ca^2+ responses. The cells were incubated with the compounds for 30 min at r. t. and then read in ANTAGONIST mode in the same plate by stimulating with 6.2 uL of a fixed concentration of the activator: final concentrations 8 μM SLIGKV, 1 U/mL Thrombin, 3.1 U/mL trypsin, or 0.6 μM UTP.

[2] = target: T1, PAR2 (HT-29 cells); test: Ca FLIPR TETRA assay, ANTAGONIST mode, activator 3.1 U/mL trypsin; details: for IC50: HT-29 cells, activator 3.1 U/mL trypsin, maximal antagonist concentration per Method (A: 0.1, 1 or 2 μM; B: 50 μM); for Trypsin, % @ 50: @ 50 (μM)
Experimental: as §1, §2, §3

[3] = system: Thrombin-stimulated Ca2+ response in HT-29 cells; test: Ca FLIPR TETRA assay, ANTAGONIST mode, activator 1 U/mL Thrombin; details: for IC50: HT-29 cells, activator 1 U/mL Thrombin
Experimental: as §1, §2, §3

[4] = system: UTP-stimulated Ca2+ response in HT-29 cells; test: Ca FLIPR TETRA assay, ANTAGONIST mode, activator 0.6 μM UTP; details: for IC50: HT-29 cells, activator 0.6 μM UTP
Experimental: as §1, §2, §3

Row | SMILES | IC50 [1] [nM] | IC50 [2] [nM] | IC50 ([3]; Homo sapiens) [µM] | IC50 ([4]; Homo sapiens) [µM] | SLIGKV, % @ 50 [1] [% @ 50] | Trypsin, % @ 50 [2] [% @ 50] | IC50 [3] [µM] | IC50 [4] [µM] | Thrombin, % @ 50 ([3]; @ 50 (μM)) [% @ 50] | inhibition at 50 µM ([4]; Homo sapiens, HT-29, @ 50 (μM)) [%]
1 | CC(C)c1cc(-c2ccc(F)cc2)nc2cc(C(=O)N3CCN(C(=O)c4ccn[nH]4)CC3(C)C)oc12 [Example I-65] | 10 | 16 | 2.7 | 2.8 | – | – | – | – | – | –
2 | CO[C@@H](C(=O)N1CCN(C(=O)c2cc3nc(-c4ccc(F)cc4)cc(C(C)C)c3o2)C(C)(C)C1)c1ccccc1 [Example I-66] | 13 | 15 | > 50 | > 50 | – | – | – | – | – | –
3 | CC(Oc1ccccc1)C(=O)N1CCN(C(=O)c2cc3nc(-c4ccc(F)cc4)cc(C(C)C)c3o2)C(C)(C)C1 (centres unmarked) [Example I-67] | 5.2 | 7.4 | > 50 | > 50 | – | – | – | – | – | –
4 | CC(C)c1cc(-c2ccc(F)cc2)nc2cc(C(=O)N3CCN(C(=O)C(C)(O)C(F)(F)F)CC3(C)C)oc12 (centres unmarked) [Example I-68] | 10 | 26 | 29 | 21 | – | – | – | – | – | –
5 | CCC(O)(CC)C(=O)N1CCN(C(=O)c2cc3nc(-c4ccc(F)cc4)cc(C(C)C)c3o2)C(C)(C)C1 [Example I-69] | 32 | 52 | 37 | > 32 | – | – | – | – | – | –
6 | CC(C)c1cc(-c2ccc(F)cc2)nc2cc(C(=O)N3CCN(C(=O)C4(O)CC4)CC3(C)C)oc12 [Example I-70] | 17 | 23 | 15 | 16 | – | – | – | – | – | –
7 | CC(C)c1cc(-c2ccc(F)cc2)nc2cc(C(=O)N3CCN(C(=O)C4CCCC4)CC3(C)C)oc12 [Example I-71] | 2.6 | 4.7 | 35 | 36 | – | – | – | – | – | –
8 | CC(C)c1cc(-c2ccc(F)cc2)nc2cc(C(=O)N3CCN(C(=O)C4CC4(F)F)CC3(C)C)oc12 (centres unmarked) [Example I-72] | 2.3 | 3.1 | 14 | 13 | – | – | – | – | – | –
9 | CC(C)c1cc(-c2ccc(F)cc2)nc2cc(C(=O)N3CCN(C(=O)c4ccon4)CC3(C)C)oc12 [Example I-73] | 2.4 | 4.2 | 8.5 | 17 | – | – | – | – | – | –
10 | CC(C)c1cc(-c2ccc(F)cc2)nc2cc(C(=O)N3CCN(C(=O)[C@H](O)C(C)C)CC3(C)C)oc12 [Example I-74] | 5.3 | 7.7 | 11 | 13 | – | – | – | – | – | –
11 | CC(C)c1cc(-c2ccc(F)cc2)nc2cc(C(=O)N3CCN(C(=O)[C@H]4CCCO4)CC3(C)C)oc12 [Example I-75] | 24 | 140 | 31 | 23 | – | – | – | – | – | –
12 | CC(C)c1cc(-c2ccc(F)cc2)nc2cc(C(=O)N3CCN(C(=O)OC(C)(C)C)CC3)oc12 [Example I-77] | – | 23000 | > 50 | > 50 | 64 | – | – | – | – | –
13 | CC(C)c1cc(-c2ccc(F)cc2)nc2cc(C(=O)N3CCN(C(=O)OC(C)(C)C)C[C@H]3C)oc12 [Example I-78] | – | – | – | – | 70 | 65 | > 50 | > 50 | – | –
14 | CC(C)c1cc(-c2ccc(F)cc2)nc2cc(C(=O)N3CCN(C(=O)OC(C)(C)C)C[C@@H]3C)oc12 [Example I-79] | 1700 | – | – | > 50 | – | 60 | – | – | 26 | –
15 | CC(C)c1cc(-c2ccc(F)cc2)nc2cc(C(=O)N3CCN(C(=O)C4CCOC4)[C@@H](C)C3)oc12 (some centres unmarked) [Example I-80] | 1600 | 4700 | 19 | 20 | – | – | – | – | – | –
16 | CC(C)c1cc(-c2ccc(F)cc2)nc2cc(C(=O)N3CCN(C(=O)C4CCCC4)[C@@H](C)C3)oc12 [Example I-81] | 22 | – | > 50 | – | – | 66 | – | – | – | 46
17 | CCC(CC)C(=O)N1CCN(C(=O)c2cc3nc(-c4ccc(F)cc4)cc(C(C)C)c3o2)C[C@@H]1C [Example I-82] | 180 | – | > 50 | 47 | – | 70 | – | – | – | –
